Measured values as given in US20240317727A1 (Duke University, priority 2018, published 2024).

molecular target: T1, purified recombinant human HSF1 (HSF1 DNA binding domain) (Homo sapiens, UniProt Q00613); assay: Melting temperature of HSF1 DBD with HSF1 degrader compounds (Sypro orange); settings: 12.5 micromolar compound, 5 micromolar HSF1 DBD, compared to DMSO; read-out: ΔTm (° C.)
T1 sequence (Q00613 15-120): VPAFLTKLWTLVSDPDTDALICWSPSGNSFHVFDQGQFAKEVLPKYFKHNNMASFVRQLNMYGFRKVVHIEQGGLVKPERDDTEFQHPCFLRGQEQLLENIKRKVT
Experimental: The melting temperature (ΔTm) for purified recombinant human HSF1 (HSF1 DNA binding domain) was determined in the presence of HSF1 degrader compounds shown in Table 5 and compared to the solvent DMSO. Sypro orange dye was added to the HSF1 DBD (5 micromolar final concentration) in buffer, mixed and distributed to wells in 384 well microtiter plates. HSF1 degrader compound (12.5 micromolar) or DMSO solvent was added to three replicate wells per compound concentration, mixed and plates loaded into a Quant Studio thermnocycler and run on a temperature gradient from 25° C. to 85° C. with increments of 0.5° C. steps. Melting curves were obtained and analyzed using the ThermnoFisher Shift Software 1.4 fitted with a Boltzmann equation to determine the change in melting temperature of the protein in the presence of DMSO as compared to compound. The difference in the melting temperature under these two conditions was assigned as the change in melting temperature of ΔTm.

ΔTm at 12.5 µM	SMILES
3.49 °C	N#Cc1cccc(NC(=O)Nc2ccc(Cl)c([N+](=O)[O-])c2)c1 [Compound 238, 1-(4-chloro-3-nitrophenyl)-3-(3-cyanophenyl)urea]
3.13 °C	N#Cc1ccc(NC(=O)Nc2ccc(Cl)c([N+](=O)[O-])c2)cc1 [Compound 239, 1-(4-chloro-3-nitrophenyl)-3-(4-cyanophenyl)urea]
1.25 °C	N#Cc1ccc(NC(=O)Nc2ccc3c(c2)S(=O)(=O)C=C3)cc1C1CC1 [Compound 259, 1-(4-cyano-3-cyclopropylphenyl)-3-(1,1-dioxidobenzo[b]thiophen-6-yl)urea]
0.5 °C	N#Cc1ccc(NC(=O)Nc2ccc3c(c2)S(=O)(=O)C=C3)cc1C1CCCC1 [Compound 260, 1-(4-cyano-3-cyclopentylphenyl)-3-(1,1-dioxidobenzo[b]thiophen-6-yl)urea]
2.47 °C	CCc1cc(NC(=O)Nc2ccc3c(c2)S(=O)(=O)C=C3)ccc1C#N [Compound 262, 1-(4-cyano-3-ethylphenyl)-3-(1,1-dioxidobenzo[b]thiophen-6-yl)urea]
1.25 °C	CC(C)c1cc(NC(=O)Nc2ccc3c(c2)S(=O)(=O)C=C3)ccc1C#N [Compound 263, 1-(4-cyano-3-isopropylphenyl)-3-(1,1-dioxidobenzo[b]thiophen-6-yl)urea]
0.86 °C	N#Cc1ccc(NC(=O)Nc2ccc3c(c2)C=CS3(=O)=O)s1 [Compound 272, 1-(5-cyanothiophen-2-yl)-3-(1,1-dioxidobenzo[b]thiophen-5-yl)urea]
1.15 °C	N#Cc1ccc(NC(=O)Nc2cccc([N+](=O)[O-])c2)cc1 [Compound 273, 1-(4-cyanophenyl)-3-(3-nitrophenyl)urea]
1.41 °C	N#Cc1ccc(NC(=O)Nc2cccc(C(F)(F)F)c2)cc1 [Compound 274, 1-(4-cyanophenyl)-3-(3-(trifluoromethyl)phenyl)urea]
1.31 °C	N#Cc1ccc(NC(=O)Nc2cccc(S(=O)(=O)C(F)(F)F)c2)cc1 [Compound 275, 1-(4-cyanophenyl)-3-(3-((trifluoromethyl)sulfonyl)phenyl)urea]
0.12 °C	CS(=O)(=O)Nc1cccc(NC(=O)Nc2ccc(C#N)cc2)c1 [Compound 276, N-(3-(3-(4-cyanophenyl)ureido)phenyl)methanesulfonamide]
-0.95 °C	N#Cc1ccc(NC(=O)Nc2ccc3c(c2)C(=O)CCC3)cc1 [Compound 278, 1-(4-cyanophenyl)-3-(8-oxo-5,6,7,8-tetrahydronaphthalen-2-yl)urea]
0.01 °C	N#Cc1ccc(NC(=O)Nc2cccc(-c3nnn[nH]3)c2)cc1 [Compound 280, 1-(3-(1H-tetrazol-5-yl)phenyl)-3-(4-cyanophenyl)urea]
-1.92 °C	CC(=O)N1CCc2ccc(NC(=O)Nc3ccc(C#N)cc3)cc21 [Compound 281, 1-(1-acetylindolin-6-yl)-3-(4-cyanophenyl)urea]
-0.97 °C	N#Cc1ccc(NC(=O)Nc2ccc3c(c2)CCCS3(=O)=O)cc1 [Compound 282, 1-(4-cyanophenyl)-3-(1,1-dioxidothiochroman-6-yl)urea]

same assay, conditions: read-out: ΔTm (° C.)

SMILES	ΔTm at 12.5 µM
N#Cc1ccc(NC(=O)Nc2ccc(Cl)c([N+](=O)[O-])c2)cc1C(F)(F)F [Compound 240, 1-(4-chloro-3-nitrophenyl)-3-(4-cyano-3-(trifluoromethyl)phenyl)urea]	3.01 °C

molecular target: T2, recombinant HSF1 DNA-binding domain (DBD) (Homo sapiens, UniProt Q00613); assay: Differential Scanning Fluorimetry (DSF), HSF1 DBD melting temperature; settings: Table 1; 5 μM HSF1 DBD, 25PM Compound; positive = stabilizes, negative = destabilizes HSF1
T2 sequence (Q00613 15-120): T1 sequence (Q00613 15-120)

ΔTm at 25 µM	SMILES
2.92 °C	O=C(Nc1ccc(Cl)c([N+](=O)[O-])c1)Nc1ccc(F)c(C2(C(F)(F)F)N=N2)c1 [Compound 0094, 1-(4-chloro-3-nitro-phenyl)-3-[4-fluoro-3-[3-(trifluoromethyl)diazirin-3-yl]phenyl]urea]
0.67 °C	CC(=O)Nc1cc(NC(=O)Nc2ccc(F)cc2)ccc1Cl [Compound 0095, N-[2-chloro-5-[(4-fluorophenyl)carbamoylamino]phenyl]acetamide]
2.61 °C	O=C(Nc1ccc(F)cc1)Nc1ccc(Cl)cc1 [Compound 0096, 1-(4-chlorophenyl)-3-(4-fluorophenyl)urea]
3.43 °C	O=C(Nc1ccc(S(=O)(=O)N2CCCCC2)cc1)c1cccc(Cl)c1 [Compound 0097]
4.93 °C	O=C(COc1ccc(Cl)cc1Cl)N/N=C/c1c[nH]c2ccccc12 [Compound 0098]
-6.74 °C	CCN1C(=O)/C(=C\c2cc([N+](=O)[O-])cc(Br)c2O)SC1=S [Compound 0099]
-7.52 °C	Cc1c2oc3c(C)c(O)c(I)cc3c(-c3c(Cl)c(Cl)c(Cl)c(Cl)c3C(=O)O)c-2cc(I)c1=O [Compound 0100]
3.33 °C	O=C(Nc1ccc(F)c(F)c1)Nc1ccc(Cl)c(C(F)(F)F)c1 [Compound 0101, 1-(4-chloro-3-(trifluoromethyl)phenyl)-3-(3,4-difluorophenyl)urea]
4.7 °C	O=C(Nc1ccc(F)cc1)Nc1ccc(Cl)c(O)c1 [Compound 0103, 1-(4-chloro-3-hydroxyphenyl)-3-(4-fluorophenyl)urea]
3.27 °C	O=C(Nc1cc(Cl)ccc1O)c1ccccc1CSc1ccc(Cl)cc1 [Compound 0104]
3.2 °C	CC(C)(C)c1ccc(NC(=O)Nc2ccc(Cl)c([N+](=O)[O-])c2)cc1 [Compound 0105, 1-(4-(tert-butyl)phenyl)-3-(4-chloro-3-nitrophenyl)urea]
3.28 °C	O=C(Nc1cccc([N+](=O)[O-])c1)Nc1ccc(F)cc1C(=O)O [Compound 0106, 5-fluoro-2-(3-(3-nitrophenyl)ureido)benzoic acid]
-4.4 °C	N#C/C(=C(/Oc1ccc(Cl)cc1Cl)C(F)(F)F)c1ccccc1 [Compound 0107]
-9.02 °C	CC(C)c1ccc2c(c1)c(SC(C)(C)C)c(CC(C)(C)C(=O)O)n2Cc1ccc(Cl)cc1 [Compound 0109]
2.94 °C	Cc1ccc(NC(=O)Nc2cccc([N+](=O)[O-])c2)cc1 [Compound 0110, 1-(3-nitrophenyl)-3-(p-tolyl)urea]
2.08 °C	O=c1c(Nc2ccc(F)cc2)c(Nc2ccc(Cl)c(S(=O)(=O)C(F)(F)F)c2)c1=O [Compound 0112, 3-[4-chloro-3-(trifluoromethylsulfonyl)anilino]-4-(4-fluoroanilino)cyclobut-3-ene-1,2-dione]
2.28 °C	Cc1ccc(NC(=O)Nc2ccc(Cl)cc2)cc1 [Compound 0113, 1-(4-chlorophenyl)-3-(p-tolyl)urea]
0.49 °C	Cc1cc(/C=N/Nc2nc3ccccc3s2)cc(C)c1O [Compound 0114]
-9.91 °C	Cc1ccc(CNC(=O)CSc2nnc(-c3ccccc3)n2-c2ccc(C)c(C)c2)cc1 [Compound 0115]

SMILES	ΔTm at 25 µM
Cc1cc([N+](=O)[O-])cc([N+](=O)[O-])c1Sc1ncc2ccccn12 [Compound 0093]	-3.44 °C
O=[N+]([O-])c1cc(C(F)(F)F)cc([N+](=O)[O-])c1Oc1ccc(C2CCCCC2)cc1 [Compound 0102]	-6.23 °C
CCOC(=O)c1sc(Sc2ccc([N+](=O)[O-])cc2[N+](=O)[O-])nc1C [Compound 0108]	-4.19 °C
Cc1cc(Oc2c([N+](=O)[O-])cc(C(F)(F)F)cc2[N+](=O)[O-])c2c(Cl)ccc(C)c2n1 [Compound 0111]	-5.21 °C
CSc1ccc(Oc2c([N+](=O)[O-])cc(C(F)(F)F)cc2[N+](=O)[O-])cc1 [Compound 0116]	-5.56 °C

same assay, conditions: Table 3; 5 μM HSF1 DBD, 25PM Compound; positive = stabilizes, negative = destabilizes HSF1

ΔTm at 25 µM	SMILES
2.33 °C	O=c1c(Nc2ccc(F)c(F)c2)c(Nc2ccc(Cl)c(C(F)(F)F)c2)c1=O [Compound 092, 3-[4-chloro-3-(trifluoromethyl)anilino]-4-(3,4-difluoroanilino)cyclobut-3-ene-1,2-dione]
2.92 °C	O=C(Nc1ccc(Cl)c([N+](=O)[O-])c1)Nc1ccc(F)c(C2(C(F)(F)F)N=N2)c1 [Compound 094, 1-(4-chloro-3-nitro-phenyl)-3-[4-fluoro-3-[3-(trifluoromethyl)diazirin-3-yl]phenyl]urea]
0.67 °C	CC(=O)Nc1cc(NC(=O)Nc2ccc(F)cc2)ccc1Cl [Compound 095, N-[2-chloro-5-[(4-fluorophenyl)carbamoylamino]phenyl]acetamide]
2.61 °C	O=C(Nc1ccc(F)cc1)Nc1ccc(Cl)cc1 [Compound 096, 1-(4-chlorophenyl)-3-(4-fluorophenyl)urea]

system: C4-2 prostate cancer cells; assay: C4-2 cell proliferation, Cell Titre Glo; format: cell-based; settings: Homo sapiens, 48-hour period, 9-point dilution series, read-out: Cell Viability IC50
Experimental: Next, cell viability of C4-2 prostate cancer cells was determined. C4-2 prostate cancer cells were grown in RMPI-1640 (no L-glutamine, Gibco 21870076) supplemented with 10% fetal bovine […] (non-heat-inactivated, Cytiva Hyclone SH30071.03). […] A 9-point dilution series was used to assess the ability of each compound to inhibit the growth of C4-2 prostate cancer cells over a 48-hour period, as compared to negative control solvent, DMSO. Cell proliferation was measured by the Cell Titre Glo assay using 384 well microtiter plate reader to quantitate luminescence. The IC50 was determined from the values obtained.

SMILES	IC50
N#Cc1cccc(NC(=O)Nc2ccc(Cl)c([N+](=O)[O-])c2)c1 [Compound 238, 1-(4-chloro-3-nitrophenyl)-3-(3-cyanophenyl)urea]	3100 nM
N#Cc1ccc(NC(=O)Nc2ccc(Cl)c([N+](=O)[O-])c2)cc1 [Compound 239, 1-(4-chloro-3-nitrophenyl)-3-(4-cyanophenyl)urea]	2940 nM
N#Cc1ccc(NC(=O)Nc2ccc(Cl)c([N+](=O)[O-])c2)cc1C(F)(F)F [Compound 240, 1-(4-chloro-3-nitrophenyl)-3-(4-cyano-3-(trifluoromethyl)phenyl)urea]	563 nM
CN(C)CCc1ccc(NC(=O)Nc2ccc(C#N)cc2)cc1S(=O)(=O)C(F)(F)F [Compound 287, 1-(4-cyanophenyl)-3-(4-(2-(dimethylamino)ethyl)-3-((trifluoromethyl)sulfonyl)phenyl)urea]	> 10000 nM
